# Test results: ChEMBL document CHEMBL1150086, “New steroid acids from Antrodia cinnamomea, a fungal parasite of Cinnamomum micranthum” (J Nat Prod, 1995)
# Test system: P388
# Assay: Cytotoxicity against mouse P388 cells after 72 hrs
# Format: functional, cell-based
# Conditions: P388, 72 h
row,SMILES,IC50 [µg/mL]
1,C=C(CC[C@@H](C)[C@H]1CC[C@H]2C3=C(C(=O)[C@H](O)[C@]12C)[C@@]1(C)CC[C@@H](O)[C@@H](C)[C@@H]1CC3=O)C(C)C(=O)O (stereo partly drawn) [ZHANKUIC ACID C],5.4
2,C=C(CC[C@@H](C)[C@H]1CC[C@H]2C3=C(C(=O)C[C@]12C)[C@@]1(C)CCC(=O)[C@@H](C)[C@@H]1CC3=O)C(C)C(=O)O (stereo partly drawn) [ZHANKUIC ACID A],1.8
3,CO[C@H](C(=O)[C@@H](O)[C@@H](C)O)[C@@H]1Cc2cc3cc(O[C@H]4C[C@@H](O[C@@H]5C[C@@H](O)[C@H](O)[C@@H](C)O5)[C@H](O)[C@@H](C)O4)c(C)c(O)c3c(O)c2C(=O)[C@H]1O[C@H]1C[C@@H](O[C@@H]2C[C@@H](O)[C@@H](O[C@@H]3C[C@](C)(O)[C@H](O)[C@@H](C)O3)[C@@H](C)O2)[C@H](O)[C@@H](C)O1 [PLICAMYCIN],0.06
